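96-well plates; 48 h exposure; 5 concentrations. Endpoints by linear interpolation between flanking doses. Not reached: highest tested concentration assigned. The concentration for 50% growth inhibition is given as GI50. At the TGI there is no net growth.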
Assays:
Assay in all cases: growth of human tumour cells (NCI), 48 h
786-0 renal = test system: 786-0 renal
A498 renal = test system: A498 renal
A549 NSCLC = test system: A549 NSCLC
ACHN renal = test system: ACHN renal
BT-549 breast = test system: BT-549 breast
CAKI-1 renal = test system: CAKI-1 renal
CCRF-CEM leukemia = test system: CCRF-CEM leukemia
COLO 205 colon = test system: COLO 205 colon
DU-145 prostate = test system: DU-145 prostate
EKVX NSCLC = test system: EKVX NSCLC
HCC-2998 colon = test system: HCC-2998 colon
HCT-116 colon = test system: HCT-116 colon
HCT-15 colon = test system: HCT-15 colon
HL-60(TB) leukemia = test system: HL-60(TB) leukemia
HOP-62 NSCLC = test system: HOP-62 NSCLC
HS 578T breast = test system: HS 578T breast
HT29 colon = test system: HT29 colon
IGROV1 ovarian = test system: IGROV1 ovarian
K-562 leukemia = test system: K-562 leukemia
KM12 colon = test system: KM12 colon
LOX IMVI melanoma = test system: LOX IMVI melanoma
M14 melanoma = test system: M14 melanoma
MALME-3M melanoma = test system: MALME-3M melanoma
MCF7 breast = test system: MCF7 breast
MDA-MB-231 breast = test system: MDA-MB-231 breast
MDA-MB-435 = test system: MDA-MB-435
MDA-MB-468 breast = test system: MDA-MB-468 breast
MOLT-4 leukemia = test system: MOLT-4 leukemia
NCI-H226 lung = test system: NCI-H226 lung
NCI-H23 lung = test system: NCI-H23 lung
NCI-H460 lung = test system: NCI-H460 lung
NCI-H522 lung = test system: NCI-H522 lung
NCI/ADR-RES ovarian = test system: NCI/ADR-RES ovarian
OVCAR-3 ovarian = test system: OVCAR-3 ovarian
OVCAR-4 ovarian = test system: OVCAR-4 ovarian
OVCAR-5 ovarian = test system: OVCAR-5 ovarian
OVCAR-8 ovarian = test system: OVCAR-8 ovarian
PC-3 prostate = test system: PC-3 prostate
RPMI-8226 leukemia = test system: RPMI-8226 leukemia
RXF 393 renal = test system: RXF 393 renal
SF-268 CNS = test system: SF-268 CNS
SF-295 CNS = test system: SF-295 CNS
SF-539 CNS = test system: SF-539 CNS
SK-MEL-2 melanoma = test system: SK-MEL-2 melanoma
SK-MEL-28 melanoma = test system: SK-MEL-28 melanoma
SK-MEL-5 melanoma = test system: SK-MEL-5 melanoma
SK-OV-3 ovarian = test system: SK-OV-3 ovarian
SN12C renal = test system: SN12C renal
SNB-19 CNS = test system: SNB-19 CNS
SR leukemia = test system: SR leukemia
SW-620 colon = test system: SW-620 colon
TK-10 renal = test system: TK-10 renal
U251 CNS = test system: U251 CNS
UACC-257 melanoma = test system: UACC-257 melanoma
UACC-62 melanoma = test system: UACC-62 melanoma
UO-31 renal = test system: UO-31 renal

For `C=C1CC[C@H](C(=C)C)[C@H]2C=C(C)C(=O)C3=C(C(=O)[C@@](C)(O)C3)[C@H]12`, the GI50 (786-0 renal) was 1.75 µM, the TGI (786-0 renal) was 3.17 µM and the GI50 (A498 renal) was 3.56 µM. For the same compound, the TGI (A498 renal) was 8.5 µM, the GI50 (A549 NSCLC) was 1.27 µM and the TGI (A549 NSCLC) was 3 µM. For the same compound, the GI50 (ACHN renal) was 1.48 µM, the TGI (ACHN renal) was 2.8 µM and the GI50 (BT-549 breast) was 1.45 µM. It also gave a TGI (BT-549 breast) of 2.77 µM, a GI50 (CAKI-1 renal) of 1.57 µM and a TGI (CAKI-1 renal) of 2.98 µM. The GI50 (CCRF-CEM leukemia) was 2.26 µM, the TGI (CCRF-CEM leukemia) was 5.25 µM and the GI50 (COLO 205 colon) was 1.74 µM. For the same compound, the TGI (COLO 205 colon) was 3.25 µM, the GI50 (DU-145 prostate) was 1.23 µM and the TGI (DU-145 prostate) was 2.48 µM. For the same compound, the GI50 (EKVX NSCLC) was 1.7 µM, the TGI (EKVX NSCLC) was 3.3 µM and the GI50 (HCC-2998 colon) was 1.28 µM. The TGI (HCC-2998 colon) was 2.54 µM, the GI50 (HCT-116 colon) was 0.801 µM and the TGI (HCT-116 colon) was 2.07 µM. The GI50 (HCT-15 colon) was 0.349 µM, the TGI (HCT-15 colon) was 1.4 µM and the GI50 (HL-60(TB) leukemia) was 0.853 µM. The TGI (HL-60(TB) leukemia) was 3.76 µM, the GI50 (HOP-62 NSCLC) was 1.76 µM and the TGI (HOP-62 NSCLC) was 3.27 µM. It also gave a GI50 (HS 578T breast) of 3.03 µM, a TGI (HS 578T breast) of 17.7 µM and a GI50 (HT29 colon) of 1.07 µM. It also gave a TGI (HT29 colon) of 3.23 µM, a GI50 (IGROV1 ovarian) of 1.28 µM and a TGI (IGROV1 ovarian) of 2.88 µM. The GI50 (K-562 leukemia) was 0.611 µM, the TGI (K-562 leukemia) was 13.1 µM and the GI50 (KM12 colon) was 1.46 µM. The TGI (KM12 colon) was 3.27 µM, the GI50 (LOX IMVI melanoma) was 0.369 µM and the TGI (LOX IMVI melanoma) was 1.5 µM. It also gave a GI50 (M14 melanoma) of 1.34 µM, a TGI (M14 melanoma) of 2.82 µM and a GI50 (MALME-3M melanoma) of 1.47 µM. For the same compound, the TGI (MALME-3M melanoma) was 2.88 µM, the GI50 (MCF7 breast) was 0.639 µM and the TGI (MCF7 breast) was 2.02 µM. The GI50 (MDA-MB-231 breast) was 1.39 µM, the TGI (MDA-MB-231 breast) was 2.74 µM and the GI50 (MDA-MB-435) was 1.55 µM. For the same compound, the TGI (MDA-MB-435) was 3.14 µM, the GI50 (MDA-MB-468 breast) was 0.528 µM and the TGI (MDA-MB-468 breast) was 1.94 µM. The GI50 (MOLT-4 leukemia) was 1.21 µM, the TGI (MOLT-4 leukemia) was 3.75 µM and the GI50 (NCI-H226 lung) was 1.47 µM. For the same compound, the TGI (NCI-H226 lung) was 3.06 µM, the GI50 (NCI-H23 lung) was 1.63 µM and the TGI (NCI-H23 lung) was 3.26 µM. For the same compound, the GI50 (NCI-H460 lung) was 1.48 µM, the TGI (NCI-H460 lung) was 4.04 µM and the GI50 (NCI-H522 lung) was 1.18 µM. For the same compound, the TGI (NCI-H522 lung) was 2.53 µM, the GI50 (NCI/ADR-RES ovarian) was 1.95 µM and the TGI (NCI/ADR-RES ovarian) was 5.52 µM. It also gave a GI50 (OVCAR-3 ovarian) of 1.2 µM, a TGI (OVCAR-3 ovarian) of 2.48 µM and a GI50 (OVCAR-4 ovarian) of 1.55 µM. For the same compound, the TGI (OVCAR-4 ovarian) was 2.99 µM, the GI50 (OVCAR-5 ovarian) was 1.52 µM and the TGI (OVCAR-5 ovarian) was 2.98 µM. For the same compound, the GI50 (OVCAR-8 ovarian) was 1.46 µM, the TGI (OVCAR-8 ovarian) was 3.69 µM and the GI50 (PC-3 prostate) was 1.67 µM. It also gave a TGI (PC-3 prostate) of 3.33 µM, a GI50 (RPMI-8226 leukemia) of 1.16 µM and a TGI (RPMI-8226 leukemia) of 3.42 µM. The GI50 (RXF 393 renal) was 1.51 µM, the TGI (RXF 393 renal) was 2.99 µM and the GI50 (SF-268 CNS) was 1.58 µM. The TGI (SF-268 CNS) was 3.36 µM, the GI50 (SF-295 CNS) was 1.48 µM and the TGI (SF-295 CNS) was 2.84 µM. It also gave a GI50 (SF-539 CNS) of 1.41 µM, a TGI (SF-539 CNS) of 2.71 µM and a GI50 (SK-MEL-2 melanoma) of 1.46 µM. The TGI (SK-MEL-2 melanoma) was 2.88 µM, the GI50 (SK-MEL-28 melanoma) was 1.63 µM and the TGI (SK-MEL-28 melanoma) was 2.99 µM. The GI50 (SK-MEL-5 melanoma) was 1.48 µM, the TGI (SK-MEL-5 melanoma) was 2.83 µM and the GI50 (SK-OV-3 ovarian) was 1.87 µM. For the same compound, the TGI (SK-OV-3 ovarian) was 3.83 µM, the GI50 (SN12C renal) was 1.19 µM and the TGI (SN12C renal) was 2.55 µM. For the same compound, the GI50 (SNB-19 CNS) was 1.65 µM, the TGI (SNB-19 CNS) was 3.01 µM and the GI50 (SR leukemia) was 0.324 µM. The TGI (SR leukemia) was 2.06 µM, the GI50 (SW-620 colon) was 1.38 µM and the TGI (SW-620 colon) was 3.11 µM. For the same compound, the GI50 (TK-10 renal) was 1.79 µM, the TGI (TK-10 renal) was 3.22 µM and the GI50 (U251 CNS) was 1.09 µM. For the same compound, the TGI (U251 CNS) was 2.38 µM, the GI50 (UACC-257 melanoma) was 1.35 µM and the TGI (UACC-257 melanoma) was 2.76 µM. It also gave a GI50 (UACC-62 melanoma) of 1.23 µM, a TGI (UACC-62 melanoma) of 2.48 µM and a GI50 (UO-31 renal) of 1.12 µM. For the same compound, the TGI (UO-31 renal) was 2.32 µM.

From PubChem BioAssay (NCI)
